Values of other authors, collected in patent US20230000903A1, “METHODS AND SYSTEMS FOR NITRIC OXIDE THERAPY FOR THE TREATMENT OR PREVENTION OF RESPIRATORY INFECTIONS” (KNOW Bio, LLC, priority 2020, published 2023).

In the case of `[N]=O` [NO, nitric oxide], the “radius of action from its site of origin” value (beyond which it is inactivated by binding to thiols or heme of hemoglobin) is given as “approximately 200 microns”, the “half-life in the body” value (in the body) is given as “less than 6 seconds” and the “share of the nitric oxide dose inhaled excreted in the urine as nitrate” value (urine, nitrate as predominant metabolite, inhaled dose) is given as “more than 70%”.
